From US11331333B2, “Treatment of aberrant fibroblast proliferation” (Georg August Universitaet Goettingen Stiftung Oeffentlichen …, priority 2019, dated 2022)

Tested on: human TK173 and TZ1 cultures
Assay: DNA damage response foci and NHEJ/HR reporters after NCS exposure in human fibroblast cultures
Type: cell-based
Description: FIGS. 20A to D depict average foci per nucleus detected in human TK173 and TZ1 cultures transfected with EYA1Δe10-ASO and labelled for γH2A.X^pS139 (FIG. 20A), γH2A.X^pS139/γH2A.X^py142 (FIG. 20B), γH2A.X^pS139/53Bp1 (FIG. 20C), and γH2A.X^pS139/Rpa1 (FIG. 20D) at indicated time points after NCS exposure (n=100 nuclei each, data are presented as means±s.d.). FIGS. 20E and F depict data on the analysis of NHEJ and HR events […] (NHEJ, FIG. 20E) and pDR-GFP (HR, FIG. 20F) reporter plasmids (n=3 independent replicates, data are presented as means±s.d., **p<0.01, ***p<0.001, values of p were calculated using Student's t test comparing indicated groups). FIG. 20G depicts proliferative activity of human kidney fibroblasts at indicated time points after seeding at a density of 60,000 per well (n=3 independent replicates, data are presented as means s.d., and *p<0.05, values of p were calculated using Student's t test comparing EYA1Δe10-ASO-transfected TZ1 with untreated TZ1 cultures). FIG. 20H depicts an analysis of p-Chk1^pS317 and p-Chk2^PT68 by SDS-PAGE and subsequent immunoblotting 24 hours after NCS exposure. […]

## EYA1Δe10-ASO: oligonucleotides targeting intron 9-10/exon 10 (SEQ ID NO: 5) and exon 10/intron 10-11 (SEQ ID NO: 4) splice junctions (antisense 1 CCTTGGACTGCGAATG; antisense 2 TTTCAACTTGGCAGTA; listed as DNA, chemistry not given here)
TZ1, after NCS exposure
  premature γH2A.X^pY14 dephosphorylation: normalization
TZ1, pDR-GFP reporter, Rpa1 foci
  HR DDR: increased HR DDR
